According to PubChem BioAssay (NCI):
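Where inhibition never reached the appropriate level, the endpoint shown equals the highest concentration tested. Otherwise, values were interpolated linearly from a five-concentration, 48-hour dose response in 96-well plates. The concentration for 50% growth inhibition is given as GI50. TGI: concentration producing complete growth inhibition.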

Tests used:
Test in all cases: DTP human tumour cell line panel, 48 h
HL-60(TB) leukemia = test system: HL-60(TB) leukemia
U251 CNS = test system: U251 CNS
SNB-75 CNS = test system: SNB-75 CNS
LOX IMVI melanoma = test system: LOX IMVI melanoma
CCRF-CEM leukemia = test system: CCRF-CEM leukemia
HCC-2998 colon = test system: HCC-2998 colon
NCI-H522 lung = test system: NCI-H522 lung
T-47D breast = test system: T-47D breast
SK-MEL-28 melanoma = test system: SK-MEL-28 melanoma
SK-MEL-2 melanoma = test system: SK-MEL-2 melanoma
HCT-15 colon = test system: HCT-15 colon
MDA-MB-231 breast = test system: MDA-MB-231 breast
SF-539 CNS = test system: SF-539 CNS
UACC-257 melanoma = test system: UACC-257 melanoma
DU-145 prostate = test system: DU-145 prostate
SW-620 colon = test system: SW-620 colon
UO-31 renal = test system: UO-31 renal
SN12C renal = test system: SN12C renal
NCI-H226 lung = test system: NCI-H226 lung
MDA-MB-435 = test system: MDA-MB-435
MALME-3M melanoma = test system: MALME-3M melanoma
KM12 colon = test system: KM12 colon
A549 NSCLC = test system: A549 NSCLC
ACHN renal = test system: ACHN renal
NCI-H460 lung = test system: NCI-H460 lung
SK-OV-3 ovarian = test system: SK-OV-3 ovarian
UACC-62 melanoma = test system: UACC-62 melanoma
HT29 colon = test system: HT29 colon
OVCAR-4 ovarian = test system: OVCAR-4 ovarian
SNB-19 CNS = test system: SNB-19 CNS
BT-549 breast = test system: BT-549 breast
K-562 leukemia = test system: K-562 leukemia
A498 renal = test system: A498 renal
SF-268 CNS = test system: SF-268 CNS
HCT-116 colon = test system: HCT-116 colon
RXF 393 renal = test system: RXF 393 renal
HS 578T breast = test system: HS 578T breast
IGROV1 ovarian = test system: IGROV1 ovarian
SF-295 CNS = test system: SF-295 CNS
786-0 renal = test system: 786-0 renal
NCI/ADR-RES ovarian = test system: NCI/ADR-RES ovarian
EKVX NSCLC = test system: EKVX NSCLC
OVCAR-3 ovarian = test system: OVCAR-3 ovarian
CAKI-1 renal = test system: CAKI-1 renal
MOLT-4 leukemia = test system: MOLT-4 leukemia
OVCAR-8 ovarian = test system: OVCAR-8 ovarian
TK-10 renal = test system: TK-10 renal
RPMI-8226 leukemia = test system: RPMI-8226 leukemia
M14 melanoma = test system: M14 melanoma
MCF7 breast = test system: MCF7 breast
HOP-62 NSCLC = test system: HOP-62 NSCLC
PC-3 prostate = test system: PC-3 prostate
HOP-92 NSCLC = test system: HOP-92 NSCLC
SR leukemia = test system: SR leukemia
NCI-H23 lung = test system: NCI-H23 lung
COLO 205 colon = test system: COLO 205 colon

For CCc1cccc2c3c(sc12)C(c1ccc(Cl)cc1)C(C#N)=C(/N=C/c1ccc(Cl)cc1)O3 (configuration not stated), the GI50 (HL-60(TB) leukemia) was 577 nM, the TGI (HL-60(TB) leukemia) was > 50000 nM and the GI50 (U251 CNS) was 1660 nM. It also gave a TGI (U251 CNS) of 17000 nM, a GI50 (SNB-75 CNS) of 104 nM and a TGI (SNB-75 CNS) of 1220 nM. The GI50 (LOX IMVI melanoma) was 905 nM, the TGI (LOX IMVI melanoma) was > 50000 nM and the GI50 (CCRF-CEM leukemia) was 892 nM. For the same compound, the TGI (CCRF-CEM leukemia) was > 50000 nM, the GI50 (HCC-2998 colon) was 1080 nM and the TGI (HCC-2998 colon) was > 50000 nM. It also gave a GI50 (NCI-H522 lung) of 206 nM, a TGI (NCI-H522 lung) of 2960 nM and a GI50 (T-47D breast) of 1130 nM. For the same compound, the TGI (T-47D breast) was > 50000 nM, the GI50 (SK-MEL-28 melanoma) was 9500 nM and the TGI (SK-MEL-28 melanoma) was > 50000 nM. The GI50 (SK-MEL-2 melanoma) was 797 nM, the TGI (SK-MEL-2 melanoma) was 23600 nM and the GI50 (HCT-15 colon) was 317 nM. For the same compound, the TGI (HCT-15 colon) was > 50000 nM, the GI50 (MDA-MB-231 breast) was 2400 nM and the TGI (MDA-MB-231 breast) was > 50000 nM. For the same compound, the GI50 (SF-539 CNS) was 755 nM, the TGI (SF-539 CNS) was 2090 nM and the GI50 (UACC-257 melanoma) was 21400 nM. The TGI (UACC-257 melanoma) was > 50000 nM, the GI50 (DU-145 prostate) was 1270 nM and the TGI (DU-145 prostate) was > 50000 nM. For the same compound, the GI50 (SW-620 colon) was 360 nM, the TGI (SW-620 colon) was > 50000 nM and the GI50 (UO-31 renal) was 1690 nM. The TGI (UO-31 renal) was > 50000 nM, the GI50 (SN12C renal) was 1930 nM and the TGI (SN12C renal) was > 50000 nM. The GI50 (NCI-H226 lung) was 6310 nM, the TGI (NCI-H226 lung) was > 50000 nM and the GI50 (MDA-MB-435) was 162 nM. The TGI (MDA-MB-435) was 788 nM, the GI50 (MALME-3M melanoma) was 4720 nM and the TGI (MALME-3M melanoma) was > 50000 nM. For the same compound, the GI50 (KM12 colon) was 417 nM, the TGI (KM12 colon) was > 50000 nM and the GI50 (A549 NSCLC) was 670 nM. The TGI (A549 NSCLC) was > 50000 nM, the GI50 (ACHN renal) was 779 nM and the TGI (ACHN renal) was > 50000 nM. For the same compound, the GI50 (NCI-H460 lung) was 1020 nM, the TGI (NCI-H460 lung) was > 50000 nM and the GI50 (SK-OV-3 ovarian) was 2790 nM. For the same compound, the TGI (SK-OV-3 ovarian) was > 50000 nM, the GI50 (UACC-62 melanoma) was 306 nM and the TGI (UACC-62 melanoma) was 44500 nM. The GI50 (HT29 colon) was 1200 nM, the TGI (HT29 colon) was > 50000 nM and the GI50 (OVCAR-4 ovarian) was > 50000 nM. For the same compound, the TGI (OVCAR-4 ovarian) was > 50000 nM, the GI50 (SNB-19 CNS) was 1200 nM and the TGI (SNB-19 CNS) was 15800 nM. The GI50 (BT-549 breast) was 2360 nM, the TGI (BT-549 breast) was > 50000 nM and the GI50 (K-562 leukemia) was 234 nM. The TGI (K-562 leukemia) was > 50000 nM, the GI50 (A498 renal) was 280 nM and the TGI (A498 renal) was 4920 nM. The GI50 (SF-268 CNS) was 10900 nM, the TGI (SF-268 CNS) was > 50000 nM and the GI50 (HCT-116 colon) was 347 nM. For the same compound, the TGI (HCT-116 colon) was > 50000 nM, the GI50 (RXF 393 renal) was 578 nM and the TGI (RXF 393 renal) was 2660 nM. The GI50 (HS 578T breast) was 1180 nM, the TGI (HS 578T breast) was 35100 nM and the GI50 (IGROV1 ovarian) was 377 nM. For the same compound, the TGI (IGROV1 ovarian) was > 50000 nM, the GI50 (SF-295 CNS) was 177 nM and the TGI (SF-295 CNS) was 806 nM. For the same compound, the GI50 (786-0 renal) was 1630 nM, the TGI (786-0 renal) was > 50000 nM and the GI50 (NCI/ADR-RES ovarian) was 214 nM. For the same compound, the TGI (NCI/ADR-RES ovarian) was 8380 nM, the GI50 (EKVX NSCLC) was 1340 nM and the TGI (EKVX NSCLC) was > 50000 nM. It also gave a GI50 (OVCAR-3 ovarian) of 433 nM, a TGI (OVCAR-3 ovarian) of 25200 nM and a GI50 (CAKI-1 renal) of 1290 nM. For the same compound, the TGI (CAKI-1 renal) was > 50000 nM, the GI50 (MOLT-4 leukemia) was 1650 nM and the TGI (MOLT-4 leukemia) was > 50000 nM. For the same compound, the GI50 (OVCAR-8 ovarian) was 1600 nM, the TGI (OVCAR-8 ovarian) was > 50000 nM and the GI50 (TK-10 renal) was 8460 nM. The TGI (TK-10 renal) was > 50000 nM, the GI50 (RPMI-8226 leukemia) was 1060 nM and the TGI (RPMI-8226 leukemia) was > 50000 nM. For the same compound, the GI50 (M14 melanoma) was 582 nM, the TGI (M14 melanoma) was > 50000 nM and the GI50 (MCF7 breast) was 248 nM. For the same compound, the TGI (MCF7 breast) was > 50000 nM, the GI50 (HOP-62 NSCLC) was 2080 nM and the TGI (HOP-62 NSCLC) was 22300 nM. The GI50 (PC-3 prostate) was 556 nM, the TGI (PC-3 prostate) was > 50000 nM and the GI50 (HOP-92 NSCLC) was 7660 nM. It also gave a TGI (HOP-92 NSCLC) of 45500 nM, a GI50 (SR leukemia) of 290 nM and a TGI (SR leukemia) of 36300 nM. The GI50 (NCI-H23 lung) was 2510 nM, the TGI (NCI-H23 lung) was > 50000 nM and the GI50 (COLO 205 colon) was 1590 nM. For the same compound, the TGI (COLO 205 colon) was > 50000 nM.
